Data taken from patent US20060247249A1 (priority 2005, published 2006).
Structures can show the parent of a compound that is named as a salt.

Key:
[1] = biological target: T1, α1A adrenoceptor (Rattus norvegicus, UniProt P43140); assay: Radioligand binding, [3H] prazosin displacement, rat submaxillary membranes; details: for Ki: [3H] prazosin displacement, rat submaxillary membranes, read-out: Affinity for α1A (Rat Submaxillary), Ki; for α1B/α1A: ratio of binding affinities, rat liver vs rat submaxillary
T1 construct: from tissue; host or cells: rat submaxillary gland membranes
T1 sequence (P43140 1-466): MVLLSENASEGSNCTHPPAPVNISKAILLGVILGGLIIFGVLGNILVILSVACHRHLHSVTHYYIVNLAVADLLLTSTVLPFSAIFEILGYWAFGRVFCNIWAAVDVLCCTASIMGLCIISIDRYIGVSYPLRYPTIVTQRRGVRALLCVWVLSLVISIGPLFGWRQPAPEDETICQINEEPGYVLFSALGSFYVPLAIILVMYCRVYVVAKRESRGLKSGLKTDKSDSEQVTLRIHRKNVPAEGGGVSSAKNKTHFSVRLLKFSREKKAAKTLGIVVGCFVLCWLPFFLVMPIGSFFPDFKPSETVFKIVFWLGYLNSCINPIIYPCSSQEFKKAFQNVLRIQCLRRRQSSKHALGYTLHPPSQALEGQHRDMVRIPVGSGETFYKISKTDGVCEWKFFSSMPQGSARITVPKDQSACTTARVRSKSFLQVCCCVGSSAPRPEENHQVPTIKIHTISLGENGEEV
Method: (§1) Receptor binding assays were performed using native α-adrenoceptors. The affinity of different compounds for α1A and α1B adrenoceptor subtypes was evaluated by studying their ability to displace specific [^3H] prazosin binding from the membranes of rat submaxillary and liver respectively (Michel et al, Br J. Pharmacol.; 1989; 98:883). The binding assays were performed according to U'Prichard et al. (Eur J Pharmacol., 1978; 50:87) with minor modifications.
(§2) Submaxillary glands were isolated immediately after sacrifice. The liver was perfused with buffer (Tris HCl 50 mM, NaCl 100 mM, 10 mM EDTA pH 7.4). The tissues were homogenised in 10 volumes of buffer (Tris HCl 50 mM, NaCl 100 mM, 10 mM EDTA pH 7.4). The homogenate was filtered through two layers of wet gauge and filtrate was centrifuged at 500 g for 10 min. The supernatant was subsequently centrifuged at 40,000 g for 45 min. The pellet thus obtained was resuspended in the same volume of assay buffer (Tris HCl 50 mM, 5 mM EDTA pH 7.4) and were stored at −70° C. until the time of assay.
(§3) The membrane homogenates (150-250 μg protein) were incubated in 250 μl of assay buffer (Tris HCl 50 mM, EDTA 5 mM, pH 7.4) at 24-25° C. for 1 hour. Non specific binding was determined in the presence of 300 nM prazosin. The incubation was terminated by vacuum filtration over GF/B fibre filters. The filters were then washed with ice cold 50 mM Tris HCl buffer (pH 7.4). The filtermats were dried and bound radioacivity retained on filters was counted. The IC50 and Kd were estimated by using the non linear curve fitting program using G Pad Prism software. The value of inhibition constant Ki was calculated from competitive binding studies by using Cheng & Prusoff equation (Cheng & Prusoff, Biochem Pharmacol, 1973,22: 3099), Ki=IC50/(1+L/Kd) where L is the concentration of [^3H] prazosin used in the particular experiment (Table I).

[2] = biological target: T2, α1B adrenoceptor (Rattus norvegicus, UniProt P15823); assay: Radioligand binding, [3H] prazosin displacement, rat liver membranes; details: read-out: Affinity for α1B (Rat Liver), Ki
T2 construct: from tissue; host or cells: rat liver membranes
T2 sequence (P15823 1-515): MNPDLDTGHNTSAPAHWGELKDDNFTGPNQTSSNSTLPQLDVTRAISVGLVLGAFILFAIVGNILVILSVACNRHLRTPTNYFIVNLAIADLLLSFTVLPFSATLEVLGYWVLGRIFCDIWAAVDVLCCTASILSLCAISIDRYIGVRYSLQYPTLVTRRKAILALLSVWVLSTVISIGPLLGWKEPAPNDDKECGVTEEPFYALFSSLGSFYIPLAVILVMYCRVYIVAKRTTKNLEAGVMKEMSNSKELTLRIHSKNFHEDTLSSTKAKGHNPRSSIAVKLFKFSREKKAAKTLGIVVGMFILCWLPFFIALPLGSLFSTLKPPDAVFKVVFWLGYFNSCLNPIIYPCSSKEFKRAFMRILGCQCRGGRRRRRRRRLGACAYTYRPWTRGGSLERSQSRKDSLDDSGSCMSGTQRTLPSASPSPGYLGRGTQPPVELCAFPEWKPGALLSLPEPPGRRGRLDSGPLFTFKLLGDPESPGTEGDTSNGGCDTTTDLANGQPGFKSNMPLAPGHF
Method: as §1, §2, §3

[3] = biological target: T3, aorta (α1D) (Rattus norvegicus, UniProt P23944); assay: In vitro functional study, isolated rat aorta, antagonism of norepinephrine contraction; format: biochemical; details: compound at 0.1, 1 and 10 μM
T3 construct: Isolated tissues were mounted in organ bath containing Krebs Henseleit buffer; from tissue; host or cells: isolated rat aorta (male Wistar)
T3 sequence (P23944 1-561): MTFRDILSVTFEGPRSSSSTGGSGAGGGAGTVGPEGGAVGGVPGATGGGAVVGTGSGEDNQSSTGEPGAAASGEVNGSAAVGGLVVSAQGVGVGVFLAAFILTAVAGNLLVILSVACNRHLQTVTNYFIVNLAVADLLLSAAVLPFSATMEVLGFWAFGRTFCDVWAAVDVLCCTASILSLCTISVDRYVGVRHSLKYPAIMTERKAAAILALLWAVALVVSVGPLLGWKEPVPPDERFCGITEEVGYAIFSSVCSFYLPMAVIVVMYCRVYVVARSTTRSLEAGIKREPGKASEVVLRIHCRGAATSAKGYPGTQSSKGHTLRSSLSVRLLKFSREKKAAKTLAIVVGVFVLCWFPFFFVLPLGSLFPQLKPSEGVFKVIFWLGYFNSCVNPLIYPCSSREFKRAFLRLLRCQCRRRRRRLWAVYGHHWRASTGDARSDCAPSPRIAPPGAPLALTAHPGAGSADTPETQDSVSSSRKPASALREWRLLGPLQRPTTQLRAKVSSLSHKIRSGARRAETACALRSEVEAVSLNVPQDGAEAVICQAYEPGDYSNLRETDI
From the text: (§4) In order to study selectivity of action of these compounds towards different α-adrenoceptor subtypes, the ability of these compounds to antagonise aorta (α1D), prostate (α1A) and spleen (α1B) was studied. Aorta, prostrate and spleen tissues were isolated from urethane anaesthetized (1.5 g/kg) male wister rats. Isolated tissues were mounted in organ bath containing Krebs Henseleit buffer of the following composition (mM): NaCl 118; KCl 4.7; CaCl2 2.5; MgSO4 7H2O 1.2; NaHCO3 25; KH2PO4 1.2; glucose 11.5. Buffer was maintained at 37° C. and aereated with a mixture of 95% O2 and 5% CO2. A resting tension of 2 g (aorta) or 1 g (spleen and prostate) was applied to tissues. Contractile response was monitored using a force displacement transducer and recorded on chart recorders. Tissues were allowed to equilibrate for 2 hours. At the end of equilibration period, concentration response curves to norepinephrine (aorta) and phenylepinephrine (spleen and prostate) were obtained in the absence and presence of tested compound (at concentration of 0.1, 1 and 10 μM). Antagonist affinity was calculated and expressed as pKB values in Table II.

[4] = biological target: T4, spleen (α1B) (Rattus norvegicus, UniProt P15823); assay: In vitro functional study, isolated rat spleen, antagonism of phenylepinephrine contraction; format: biochemical; details: compound at 0.1, 1 and 10 μM
T4 construct: from tissue; host or cells: isolated rat spleen (male Wistar)
T4 sequence (P15823 1-515): T2 sequence (P15823 1-515)
From the text: as §4

[5] = biological target: T5, prostate (α1A) (Rattus norvegicus, UniProt P43140); assay: In vitro functional study, isolated rat prostate, antagonism of phenylepinephrine contraction; format: biochemical
T5 construct: from tissue; host or cells: isolated rat prostate (male Wistar)
T5 sequence (P43140 1-466): T1 sequence (P43140 1-466)
From the text: as §4

[6] = biological target: α1-adrenoceptor; details: background statement; cited from earlier work

Compound | Ki [1] | α1B/α1A [1] | Ki [2] | α1D (pKB) [3] | α1B (pKB) [4] | Selectivity α1D/α1A ([5]; functional assays, aorta vs prostate) | Selectivity α1B/α1A ([5]; functional assays, spleen vs prostate) | α1A (pKB) ([5]; rat prostate, phenylepinephrine, compound at 0.1, 1 and 10 μM) | α1-adrenergic blocking activity (pKi) [6]
CC(C)Oc1ccccc1N1CCN(CCCNC(=O)CCCC(=O)O)CC1 | 777 nM | 3 | 2100 nM |  |  |  |  |  | 
1-Carboxy cyclohex-4-ene-2-[N-{3-(2-ethoxyphenyl)piperazin-1yl}-2-hydroxyphenyl]carboxamide [Compound No. 6] | 398 nM | 3 | 1240 nM |  |  |  |  |  | 
1-Carboxycyclohex-4-ene-2-[N-{3-(2-ethoxyphenyl)piperazin-1-yl}propyl]carboxamide [Compound No. 1] | 20 nM | >50 | > 1000 nM | 7.24 | 8.16 | 9.5 | 1.15 | 8.22 | 
1-Carboxymethylcyclohex-4-ene-2-[N-{3-(2-isopropoxyphenyl)piperazin-1-yl}-propyl]carboxamide hydrochloride [Compound No. 11] | 3.15 nM | 31 | 99 nM |  |  |  |  |  | 
CC(C)Oc1ccccc1N1CCN(CCCNC(=O)C2CC=CCC2C(=O)O)CC1 (centres unmarked) [Compound No. 2, 1-Carboxy cyclohex-4-ene-2-[N-{3-(2-isopropoxyphenyl)piperazin-1-yl}propyl]carboxamide] | 19 nM | >53 | > 1000 nM |  |  |  |  |  | 
COc1ccccc1N1CCN(CC(O)CNC(=O)C2CC=CCC2C(=O)O)CC1 (centres unmarked) [Compound No. 3] | > 1000 nM |  | > 1000 nM |  |  |  |  |  | 
O=C(O)C1CC=CCC1C(=O)NCC(O)CN1CCN(c2ccccc2O)CC1 (centres unmarked) [Compound No. 4] | 1890 nM | 5 | 9740 nM |  |  |  |  |  | 
CC(C)Oc1ccccc1N1CCN(CC(O)CNC(=O)C2CC=CCC2C(=O)O)CC1 (centres unmarked) [Compound No. 5, 1-Carboxy cyclohex-4-ene-2-[N-{3-(2-isopropoxyphenyl)piperazin-1-yl}-2-hydroxypropyl]carboxamide] | 21 nM | 84 | 1760 nM |  |  |  |  |  | 
O=C(O)CCCC(=O)NCCCN1CCN(c2ccccc2O)CC1 [Compound No. 7, 5-[N-{3-(2-hydroxyphenyl)piperazin-1-yl}]-1-aminopropyl-5-oxo-pentan-1-oic acid] | 12600 nM | 1 | 13000 nM |  |  |  |  |  | 
O=C(O)C1CC=CCC1C(=O)NCCCN1CCN(c2ccccc2O)CC1 (centres unmarked) [Compound No. 8, 1-Carboxy cyclohex-4-ene-2-[N-{3-(2-hydroxyphenyl)piperazin-1-yl}propyl]carboxamide] | 593 nM | 9 | 5080 nM |  |  |  |  |  | 
COc1ccccc1N1CCN(CC(O)CNC(=O)CCCC(=O)O)CC1 (centres unmarked) [Compound No. 12] | > 1000 nM | 1 | > 10000 nM |  |  |  |  |  | 
COC(=O)CCCC(=O)NCCCN1CCN(c2ccccc2OC)CC1 [hydrochloride] | 139 nM | >7 | > 1000 nM |  |  |  |  |  | 
COc1cc2nc(N3CCN(C(=O)c4ccco4)CC3)nc(N)c2cc1OC [prazosin] |  |  |  |  |  |  |  |  | > 8
